In US20110201648A1, “POLY-HETEROARYL DERIVATIVES FOR THE TREATMENT OF CANCER” (INSTITUT CURIE, priority 2008, published 2011):

Assays:
[1] = system: F21T (human telomeric quadruplex-DNA); experiment: FRET-melting assay with F21T; type: binding; details: for ΔT1/2 F21T: 0.2 μM F21T, 1 μM compound; for F21T stabilization maintained: sodium buffer
Description: Stabilization, and so interaction, of compounds with quadruplex-structure is monitored via FRET-melting assay, in a version that also enables the determination of the quadruplex-over duplex-DNA selectivity as well as the intra-quadruplex selectivity (17).
FRET assay is performed with oligonucleotides that mimic the human or plasmodium telomeric sequences, and equipped with FRET partners at each extremities: F21T (FAM-G3[T2AG3]3-Tamra,) FPf1T (FAM-G3[T3AG3]3-Tamra) and FPf8T (FAM-G3[T2CAG3]3-Tamra) with FAM: 6-carboxyfluorescein and Tamra: 6-carboxy-tetramethylrhodamine). Measurements were made with excitation at 492 nm and detection at 516 nm.
Fluorescence melting were carried out. The results are given on FIG. 3A-FIG. 3C. The experiments were carried out with 0.2 μM of F21T, FPf1T or FPf8T in a buffer containing 10 mM lithium cacodylate pH 7.2 and 100 mM NaCl or KCl (see example of F21T below, NaCl (left) and KCl (right)); the melting of the quadruplex-DNA was monitored alone and in the presence of 1 μM (5 equiv.) of compound 3.
Fluorescence melting are carried out with 0.2 μM of F21T in a buffer containing 10 mM lithium cacodylate pH 7.2 and 100 mM NaCl; the melting of the G-quadruplex was monitored alone and in the presence of 1 μM of compound 3 without or with excess (1, 3 and 10 μM) of duplex-DNA competitor ds26 (a 26 base-pair duplex-DNA comprised of the self complementary sequence [5′-[…]-3′]). The results are given on FIG. 4
Fluorescence melting experiments are carried out with 0.2 μM of F21T in a buffer containing 10 mM lithium cacodylate pH 7.2 and 100 mM NaCl; the melting of the G-quadruplex was monitored alone and in the presence of 1 μM of compound 3 without or with excess (1, 3 and 10 μM) of quadruplex-DNA competitors, both TG5T ([(5′-TG5T-3′)4], a tetramolecular quadruplex-DNA used in previous study (21) or c-myc ([5′-[…]-3′], a sequence present in the promoter region of the oncogene c-myc, highly suspected to fold into an intramolecular quadruplex-structure (22-25). The results are given on FIG. 5A-FIG. 5B.
FIG. 16 gives results obtained in FRET-melting, using the same sodium conditions as above defined in a) and b), with compounds 3 and 4. The melting of the Fluorescently labelled quadruplex F21T was monitored alone and in the presence of 1 μM of compound 3 or compound 4 without or with excess (1.3 and 10 μM) of duplex-DNA competitor ds26 (a 26 base-pair duplex DNA comprised the above mentioned self-complementary sequence [5′-[…]-3′]).

[2] = biological target: hPOT1; experiment: Electrophoretic mobility shift assay, POT1/22AG binding; parameters: species or system human; details: 30 nM hPOT1, 20 nM 32P-22AG, 30 min room temperature
Description: An electrophoretic mobility shift assay using hPOT1 was performed on the telomeric 22AG oligonucleotide (see above). 22AG was labeled at the 5′ end with [γ-^32P]-ATP using T4 polynucletide kinase. Purified recombinant hPOT1 was produced in a baculovirus expression system. The POT1/22AG binding assay was performed in a total volume of 10 μl containing 50 mM HEPES, pH 7.9, 100 mM NaCl, 0.1 mM EDTA, 4% w/v sucrose, 2% v/v glycerol, 0.1 mg/ml BSA, 0.02% w/v bromophenol blue, 30 nM hPOT1, 20 nM [[…]-^32P]-22AG. Different concentrations of compound 3 (10, 1, 0.1 and 0.01 μM) were added with hPOT1 to the solution and the mixture was incubated at room temperature for 30 min. Each individual sample was separated by electroporesis on 1% agarose gel in 0.5×Tris-Borate-EDTA buffer. The gel was run at 80V for 35 min, dried on whatman DE81 paper and radiaoactivity visualized by a phosphorimager (Typhoon 9210, Amersham). Analysis of the data was carried out by ImageQuant software (Amersham) and results were expressed as a percentage of the POT1-22AG complex obtained in the untreated control (defined as 100%) (see FIG. 14).

[3] = Fluorescence quantum yield; type: physicochemical; details: anthracene in ethanol as reference
Description: Pyridine-based polyheteroaromatic compounds detailed in this study are characterized by a strong fluorescence. Remarkably, the quantum yield is not affected by the nature of the solvent they are used in, from pure organic (e.g. DMSO) to physiological conditions (e.g. buffer: 10 mM sodium cacodylate+100 mM KCl, pH 7.2, see Table). The modification of the fluorescence properties of studied compounds upon interaction with DNA enables to compare their apparent binding affinity for several quadruplexes of biological relevance (27).
NB: the quantum yields (and standard deviations (s.d.)) of compound 3 were measured in CH2Cl2 (DCM) and water, with anthracene in ethanol as reference.

[4] = system: 22AG quadruplex-DNA; experiment: Circular dichroism with 22AG; type: binding, human
Description: Circular dichroism (CD) enables a deep study of the modification of the DNA structure upon the binding of a ligand; it thus reflects the affinity of the ligand to its target, and can also provide insight into its binding mode (Paramasivan et al, Methods, 2007, 43, 324).
The quadruplex-DNA used herein is 22AG (see above), annealed both in a 10 mM sodium cacodylate buffer pH 7.2, 100 mM NaCl (for 22AG Na) or KCl (for 22AG K). To a 3 μM solution of 22AG in both buffers is added an excess of compound 3 (30 μM, 10 equiv.).
The equilibrium between folded and unfolded forms of 22AG oligonucleotide is highly sensitive to the presence and the nature of the buffer it is used in. In low cationic buffer like 10 mM Tris.HCl, pH 7.2, 22AG is mostly unfolded (random coiled); it is thus possible to influence the folded <-> unfolded equilibrium by adding compound 3. Thus, to a 3 μM solution of random coiled 22AG in Tris.HCl buffer are added increasing amounts of compound 3 (from 0 to 7.5 equiv.); it results in a deep modification of the CD signal of 22AG, with a disappearance of the random coiled-typical 257 nm signal to the benefit of two novel maxima, one positive (near 290 nm) and one negative (near 265 nm), both being typical of the CD signature of ‘anti-parallel’ quadruplex-DNA structure (as 22AG Na, see above).

## c1cc(-c2cnc(-c3cccc(-c4cnco4)n3)o2)nc(-c2cnc(-c3cccc(-c4cnco4)n3)o2)c1 [compound 3, 2,6-bis{2-[6-(oxazol-5-yl)pyridin-2-yl]oxazol-5-yl}pyridine]
[1]; K+ (100 mM KCl)
  ΔT1/2 F21T: 1.3 °C
[1]; Na+ (100 mM NaCl)
  ΔT1/2 F21T: 14.6 °C
[1]; 1 μM of TG5T competitor
  F21T stabilization maintained: 61%
[1]; 1 μM of c-myc competitor
  F21T stabilization maintained: 42%
[1]; 3 μM of TG5T competitor
  F21T stabilization maintained: 37%
[1]; 3 μM of c-myc competitor
  F21T stabilization maintained: 15%
[1]; 10 μM of TG5T competitor
  F21T stabilization maintained: 17%
[1]; 10 μM of c-myc competitor
  F21T stabilization maintained: 1%
[1]; in presence of 1, 3 or 10 μM of ds26 duplex competitor
  F21T stabilization maintained: > 91%
[2]
  IC50: 300 nM
[3]; DCM (CH2Cl2)
  Quantum yield: 50.35%
[3]; Water
  Quantum yield: 50.37%
[4]; 3 μM 22AG, 30 μM compound (10 equiv.), 100 mM KCl, 263 nm
  CD signal of 22AG K: reorganises completely the structure
[4]; 3 μM 22AG, 30 μM compound (10 equiv.), 100 mM NaCl, 263 nm
  CD signal of 22AG Na: modification of the amplitude of the CD signal
[4]; 3 μM random coiled 22AG in 10 mM Tris.HCl pH 7.2, 0 to 7.5 equiv. compound
  quadruplex-structure induction (folded/unfolded equilibrium of 22AG): able to shift the equilibrium between the unfolded and the folded form of 22AG toward the folded one
